Our source for the IC50 values is ChEMBL document CHEMBL2010723, “Assessment of partially deoxygenated deoxynojirimycin derivatives as glucosylceramide synthase inhibitors” (ACS Med Chem Lett, 2011).

Where only a bound is given, the exact number is not on record here.

For one experiment, the target named is T1, Beta-glucosidase (Homo sapiens, UniProt Q9HCG7).
T1 sequence (Q9HCG7 whole entry): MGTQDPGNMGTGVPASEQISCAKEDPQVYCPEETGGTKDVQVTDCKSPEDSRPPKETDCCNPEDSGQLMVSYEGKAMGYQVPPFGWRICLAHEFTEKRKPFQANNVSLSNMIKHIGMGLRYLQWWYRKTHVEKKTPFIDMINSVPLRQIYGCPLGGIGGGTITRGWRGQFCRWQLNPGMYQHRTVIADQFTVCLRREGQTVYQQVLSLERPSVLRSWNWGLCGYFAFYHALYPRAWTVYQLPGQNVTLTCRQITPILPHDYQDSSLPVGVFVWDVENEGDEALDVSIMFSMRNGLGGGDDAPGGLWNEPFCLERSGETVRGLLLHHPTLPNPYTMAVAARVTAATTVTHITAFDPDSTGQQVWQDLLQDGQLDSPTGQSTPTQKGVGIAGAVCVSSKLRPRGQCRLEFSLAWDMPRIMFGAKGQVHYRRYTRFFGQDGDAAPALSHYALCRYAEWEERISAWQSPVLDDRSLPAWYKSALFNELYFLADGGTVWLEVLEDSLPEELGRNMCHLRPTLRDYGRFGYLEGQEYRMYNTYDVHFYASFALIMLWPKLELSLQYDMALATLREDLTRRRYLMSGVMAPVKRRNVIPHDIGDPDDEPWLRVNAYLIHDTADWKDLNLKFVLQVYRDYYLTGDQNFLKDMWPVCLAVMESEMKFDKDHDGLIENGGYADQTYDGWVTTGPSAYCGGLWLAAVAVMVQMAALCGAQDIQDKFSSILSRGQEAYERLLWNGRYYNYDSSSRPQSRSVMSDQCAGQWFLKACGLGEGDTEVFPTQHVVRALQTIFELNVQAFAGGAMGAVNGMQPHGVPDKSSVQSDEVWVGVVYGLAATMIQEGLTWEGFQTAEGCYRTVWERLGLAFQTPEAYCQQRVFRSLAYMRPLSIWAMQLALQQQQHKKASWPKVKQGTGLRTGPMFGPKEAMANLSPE
Put plainly: Inhibition of glucosylceramidase 2 from spleen of patient with gaucher's disease by fluorimetric analysis.

For experiment [1], the target named is T2, Ceramide glucosyltransferase (Mus musculus, UniProt O88693).
T2 sequence (O88693 whole entry): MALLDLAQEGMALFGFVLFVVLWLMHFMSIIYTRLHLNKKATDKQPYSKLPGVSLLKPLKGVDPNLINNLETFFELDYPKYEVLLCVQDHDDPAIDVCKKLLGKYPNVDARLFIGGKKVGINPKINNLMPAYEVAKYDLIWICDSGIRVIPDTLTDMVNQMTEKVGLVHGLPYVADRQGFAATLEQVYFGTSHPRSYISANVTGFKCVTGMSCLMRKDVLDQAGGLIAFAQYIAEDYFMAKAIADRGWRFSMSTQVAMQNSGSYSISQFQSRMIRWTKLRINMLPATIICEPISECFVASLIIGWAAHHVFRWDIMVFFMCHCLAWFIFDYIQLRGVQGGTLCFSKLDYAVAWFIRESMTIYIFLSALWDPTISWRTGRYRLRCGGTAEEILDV
Kind of experiment: Inhibition of glucosylceramide synthase in mouse RAW cells preincubated for 15 mins followed by substrate addition and measured after 1 hr by fluorescence scanner. Type of experiment: cell-based.

A short description of experiment [2]: Inhibition of recombinant glucosylceramidase 1 using 4-methylumbelliferyl-B-glucoside as substrate by fluorimetric analysis.

The IC50 is the point on the concentration scale where inhibition reaches its midpoint.

Turning to `OC[C@@H]1NCC=C[C@H]1O`, the values for the IC50 (on Beta-glucosidase; in experiment [1]; in experiment [2]) were > 500 µM, > 10 µM and > 1000 µM, respectively.

Consider `OC[C@@H]1NCCC[C@@H]1O`, for which the figures for the IC50 (at Beta-glucosidase; in experiment [1]; in experiment [2]) were > 1000 µM, > 10 µM and 80 µM, respectively.

As to `OC[C@@H]1[C@@H](O)[C@H](O)CCN1CCCCCOCC12CC3CC(CC(C3)C1)C2`, the results for the IC50 (at Beta-glucosidase; in experiment [1]; in experiment [2]) were 1 µM, > 10 µM and 10 µM, respectively.

For `CCCCN1CC[C@H](O)[C@H](O)[C@@H]1CO`, the IC50 is > 1000 µM at Beta-glucosidase, > 10 µM in experiment [1] and > 1000 µM in experiment [2].

For `OC[C@@H]1NCCC[C@H]1O`, the IC50 was > 1000 µM against Beta-glucosidase, > 10 µM in experiment [1] and 400 µM in experiment [2].

`OC[C@H]1NCC[C@@H](O)[C@H]1O`: the values for the IC50 (at Beta-glucosidase; in experiment [1]; in experiment [2]) were > 1000 µM, > 10 µM and > 1000 µM, respectively.

On to `OC[C@H]1[C@@H](O)[C@H](O)CCN1CCCCCOCC12CC3CC(CC(C3)C1)C2`, for which the IC50 on Beta-glucosidase is 0.5 µM; in experiment [1], > 10 µM; in experiment [2] it was 500 µM.
